# Target: interaction between p53 and MDM2 proteins (Homo sapiens, UniProt Q00987)
# Experiment: HTRF assay of inhibition of the p53-MDM2 interaction (GST-MDM2 / biotinylated p53 peptide)
# Type: binding
# Conditions: 0.02% BSA
# Description: The ability of the compounds to inhibit the interaction between p53 and MDM2 proteins was measured by an HTRF (homogeneous time-resolved fluorescence) assay in which recombinant GST-tagged MDM2 binds to a peptide that resembles the MDM2-interacting region of p53 (Lane et al.). Binding of GST-MDM2 protein and p53-peptide (biotinylated on its N-terminal end) is registered by the FRET (fluorescence resonance energy transfer) between Europium (Eu)-labeled anti-GST antibody and streptavidin-conjugated Allophycocyanin (APC).
# Test is performed in black flat-bottom 384-well plates (Costar) in a total volume of 40 uL containing: 90 nM biotinylate peptide, 160 ng/ml GST-MDM2, 20 nM streptavidin-APC (PerkinElmerWallac), 2 nM Eu-labeled anti-GST-antibody (PerkinElmerWallac), 0.2% bovine serum albumin (BSA), 1 mM dithiothreitol (DTT) and 20 mM […] (TBS) buffer as follows: Add 10 uL of GST-MDM2 (640 ng/ml working solution) in reaction buffer to each well. Add 10 uL diluted compounds (1:5 dilution in reaction buffer) to each well, mix by shaking. Add 20 uL biotinylated p53 peptide (180 nM working solution) in reaction buffer to each well and mix on shaker. Incubate at 37° C. for 1 h. Add 20 uL streptavidin-APC and Eu-anti-GST antibody mixture (6 nM Eu-anti-GST and 60 nM streptavidin-APC working solution) in TBS buffer with 0.2% BSA, shake at room temperature for 30 minutes and read using a TRF-capable plate reader at 665 and 615 nm (Victor 5, Perkin ElmerWallac).
# Sequence of interaction between p53 and MDM2 proteins (Q00987 whole entry): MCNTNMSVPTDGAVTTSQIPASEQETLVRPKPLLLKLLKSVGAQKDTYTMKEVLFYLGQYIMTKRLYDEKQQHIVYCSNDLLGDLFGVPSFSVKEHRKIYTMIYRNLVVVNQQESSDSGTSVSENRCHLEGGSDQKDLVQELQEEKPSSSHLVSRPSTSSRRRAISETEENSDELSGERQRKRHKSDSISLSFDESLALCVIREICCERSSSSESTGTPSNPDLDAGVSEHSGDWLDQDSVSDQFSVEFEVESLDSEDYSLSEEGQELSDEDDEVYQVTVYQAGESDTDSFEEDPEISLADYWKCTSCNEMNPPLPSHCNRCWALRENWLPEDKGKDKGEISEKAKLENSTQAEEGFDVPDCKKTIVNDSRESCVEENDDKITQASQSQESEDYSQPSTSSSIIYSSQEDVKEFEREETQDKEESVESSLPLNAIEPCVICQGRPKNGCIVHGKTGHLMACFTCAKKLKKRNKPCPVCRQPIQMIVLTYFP
row,Compound,IC50 [nM]
1,"COC(=O)C1(Oc2ccc(Cl)cc2[C@H]2CC(=S)N[C@@H](c3cc(F)ccc3C)[C@]23C(=O)Nc2cc(Cl)ccc23)CCC1 (racemic) [Example 50, racemic (2′S, 3S, 4′R)-6-chloro-4′-[5-chloro-2-(1-methoxycarbonyl-cyclobutoxy)-phenyl]-2′-(5-fluoro-2-methyl-phenyl)-6′-thioxo spiro[3H-indole-3,3′-piperidine]-2(1H)-one]",4330
2,COc1cc(F)c(Cl)cc1[C@@H]1CC(=S)N[C@H](c2cc(F)ccc2C)[C@@]12C(=O)Nc1cc(Cl)ccc12 (racemic) [Example 62],1090
3,"CONC(=O)C(C)(C)Oc1ccc(Cl)cc1[C@H]1CC(=S)N[C@@H](c2cc(F)ccc2C)[C@]12C(=O)Nc1cc(Cl)ccc12 (racemic) [Example 73, racemic (2′S, 3S, 4′R)-6-chloro-4′-[5-chloro-2-(1-methoxycarbamoyl-1-methyl-ethoxy)-phenyl]-2′-(5-fluoro-2-methyl-phenyl)-6′-thioxo spiro[3H-indole-3,3′-piperidine]-2(1H)-one]",607
4,"Cc1ccc(F)cc1[C@@H]1NC(=S)C[C@H](c2cc(Cl)ccc2OC(C)(C)C(=O)O)[C@@]12C(=O)Nc1cc(Cl)ccc12 [Example 8, chiral (2′S, 3S, 4′R)-6-chloro-4′-[5-chloro-2-(1-hydroxycarbonyl-1-methyl-ethoxy)-phenyl]-2′-(5-fluoro-2-methyl-phenyl)-6′-thioxo spiro[3H-indole-3,3′-piperidine]-2(1H)-one]",50
5,"CCC(CC)(Oc1ccc(Cl)cc1[C@H]1CC(=S)N[C@@H](c2cc(F)ccc2C)[C@]12C(=O)Nc1cc(Cl)ccc12)C(=O)NS(C)(=O)=O [Example 24, chiral (2′S, 3S, 4′R)-6-chloro-4′-[5-chloro-2-(2-methanesulfonylamino-1,1-diethyl-2-oxo-ethoxy)-phenyl]-2′-(5-fluoro-2-methyl-phenyl)-6′-thioxo spiro[3H-indole-3,3′-piperidine]-2(1H)-one]",22

# — US8076482B2, “3,3′-spiroindolinone derivatives” (Hoffmann-La Roche Inc., priority 2009, dated 2011)
